Molecules are shown by their SMILES.

This experiment relates to phenylephrine-precontracted vessels (thoracic aorta or femoral vein rings). Kind of experiment: in vitro vascular reactivity test: relaxation of phenylephrine-precontracted aorta or vein rings. As to conditions: at 100 μM; relative to phenylephrine (0.1 μM)-induced contractile tone.
Source text: The determination of the nitrogen monoxide-releasing properties of a compound, be it by enzymatic or non-enzymatic action, can be carried out by means of in vitro vascular reactivity tests. The in vitro vascular reactivity test measures the ability of the released nitrogen monoxide to relax a pretensioned aorta ring or vein ring which is kept in an organ chamber. […] The thoracic aorta or the femoral vein is isolated from sacrificed and exsanguinated Wistar rats and cut up to give rings 2 mm long. The vascular rings are stored in organ chambers. Changes in the development of tension after the action of compounds are recorded by an isometric signal transmitter, which is connected to a computerized detection system. The computer program analyses time curves, period and size amounts between contractions.
Consider `COCCCN1CCOc2ccc(CO[C@H]3CNC[C@@H](OC[C@@H](C)O[N+](=O)[O-])[C@@H]3c3ccc(COCCOC)cc3)cc21` [Example 6], for which the “relaxation, percentage of the maximal vessel relaxation achieved with sodium nitroprusside (SNP)” value (shortened to “relaxation, percentage”) is listed as 15%. Consider `COCCCN1CCOc2ccc(CO[C@H]3CNC[C@@H](OC[C@H](O)CO[N+](=O)[O-])[C@@H]3c3ccc(COC[C@@H](C)COC)cc3)cc21` [Example 8, (S)-1-{(3S,4R,5R)-4-[4-((S)-3-Methoxy-2-methyl-Propoxymethyl)phenyl]-5-[4-(3-methoxypropyl)-3,4-dihydro-2H-benzo[1,4]oxazin-6-ylmethoxy]-piperidin-3-yloxy}-3-nitrooxypropan-2-ol], for which the “relaxation, percentage” value is reported as 20%. For `COCCCN1CCOc2ccc(CO[C@H]3CNC[C@@H](O[N+](=O)[O-])[C@@H]3c3ccc(COC[C@@H](C)COC)cc3)cc21` [Example 9, 6-{(3R,4R,5S)-4-[4-((S)-3-Methoxy-2-methylpropoxy-methyl)phenyl]-5-nitrooxypiperidin-3-yloxy-methyl}-4-(3-methoxypropyl)-3,4-dihydro-2H-benzo-[1,4]oxazine], the “relaxation, percentage” value is recorded as 8%. As for `COCCCN1CCOc2ccc(CO[C@H]3CNC[C@@H](OC[C@@H](COC)O[N+](=O)[O-])[C@@H]3c3ccc(COC[C@@H](C)COC)cc3)cc21` [Example 14], the “relaxation, percentage” value came to 25%. Turning to `COCCCN1CCOc2ccc(CO[C@H]3CNC[C@@H](CO[N+](=O)[O-])[C@@H]3c3ccc(COC[C@@H](C)COC)cc3)cc21` [Example 21, 6-{(3R,4R,5S)-4-[4-((S)-3-Methoxy-2-methyl-propoxymethyl)phenyl]-5-nitro-oxymethylpiperidin-3-yloxymethyl}-4-(3-methoxypropyl)-3,4-dihydro-2H-benzo[1,4]oxazine], the “relaxation, percentage” value is 20%. The figure for `COCCCN1CCOc2ccc(CO[C@H]3CNC[C@@H](OC[C@H](COC)O[N+](=O)[O-])[C@@H]3c3ccc(COC[C@@H](C)COC)cc3)cc21` [Example 34, 6-[(3R,4R,5S)-4-[4-((S)-3-Methoxy-2-methylpropoxy-methyl)phenyl]-5-((S)-3-methoxy-2-nitrooxy-propoxy)piperidin-3-yloxymethyl]-4-(3-methoxy-propyl)-3,4-dihydro-2H-benzo[1,4]oxazine] is 8%.
